{"source": "patent US10308650B2", "about": "“Pesticidally active tetracyclic derivatives with sulfur containing substituents” (Syngenta Participations AG, priority 2014, dated 2019)", "format_in_all_cases": "in vivo", "key": {"[1]": {"system": "Myzus persicae (Green Peach Aphid)", "assay": "Activity against Myzus persicae: systemic activity", "settings": "144 h, test rate of 24 ppm, roots of infested pea seedlings in test solution, 6 days, read-out: mortality", "protocol": "Example B6: Activity Against Myzus persicae (Green Peach Aphid). Systemic Activity\nRoots of pea seedlings infested with an aphid population of mixed ages were placed directly into aqueous test solutions prepared from 10,000 DMSO stock solutions. The samples were assessed for mortality 6 days after placing seedlings into test solutions."}, "[2]": {"system": "Diabrotica balteata (Corn Root Worm)", "assay": "Activity against Diabrotica balteata", "settings": "96 h, application rate of 200 ppm, maize sprouts, L2 larvae, 4 days after infestation, read-out: effect in at least one of the two categories (mortality or growth inhibition)", "protocol": "Example B2: Activity Against Diabrotica balteata (Corn Root Worm)\nMaize sprouts placed onto an agar layer in 24-well microtiter plates were treated with aqueous test solutions prepared from 10,000 ppm DMSO stock solutions by spraying. After drying, the plates were infested with L2 larvae (6 to 10 per well). The samples were assessed for mortality and growth inhibition in comparison to untreated samples 4 days after infestation."}, "[3]": {"system": "Myzus persicae (Green Peach Aphid)", "assay": "Activity against Myzus persicae: feeding/contact activity", "settings": "foliar, 144 h, application rate of 200 ppm, sunflower leaf discs, aphid population of mixed ages, 6 days after infestation, read-out: mortality", "protocol": "Example B5: Activity Against Myzus persicae (Green Peach Aphid): Feeding/Contact Activity\nSunflower leaf discs were placed onto agar in a 24-well microtiter plate and sprayed with aqueous test solutions prepared from 10,000 ppm DMSO stock solutions. After drying, the leaf discs were infested with an aphid population of mixed ages. The samples were assessed for mortality 6 days after infestation."}, "[4]": {"system": "Euschistus heros (Neotropical Brown Stink Bug)", "assay": "Activity against Euschistus heros", "settings": "120 h, application rate of 200 ppm, soybean leaves, N2 nymphs, 5 days after infestation, read-out: effect in at least one of the two categories (mortality or growth inhibition)", "protocol": "Example B3: Activity Against Euschistus heros (Neotropical Brown Stink Bug)\nSoybean leaves on agar in 24-well microtiter plates were sprayed with aqueous test solutions prepared from 10,000 ppm DMSO stock solutions. After drying the leaves were infested with N2 nymphs. The samples were assessed for mortality and growth inhibition in comparison to untreated samples 5 days after infestation."}, "[5]": {"system": "Plutella xylostella (Diamond Back Moth)", "assay": "Activity against Plutella xylostella", "settings": "120 h, application rate of 200 ppm, artificial diet, L2 larvae, 5 days after infestation, read-out: effect in at least one of the two categories (mortality or growth inhibition)", "protocol": "Example B8: Activity Against Plutella xylostella (Diamond Back Moth)\n24-well microtiter plates with artificial diet were treated with aqueous test solutions prepared from 10,000 ppm DMSO stock solutions by pipetting. After drying, the plates were infested with L2 larvae (10 to 15 per well). The samples were assessed for mortality and growth inhibition in comparison to untreated samples 5 days after infestation."}}, "data": [{"smiles": "CCS(=O)(=O)c1cc2ncn(C)c2cc1-c1nc2cc(C(F)(F)F)ncc2n1C", "note": "(single isomer, unassigned) [Compound A11, 2-(6-ethylsulfonyl-3-methyl-benzimidazol-5-yl)-3-methyl-6-(trifluoromethyl)imidazo[4,5-c]pyridine]", "values": [{"measurement": "mortality at 24 ppm", "setting": "[1]", "result": "≥ 80", "unit": "%"}, {"measurement": "percent effect (mortality or growth inhibition) at 200 ppm", "setting": "[2]", "result": "≥ 80", "unit": "%"}, {"measurement": "mortality at 200 ppm", "setting": "[3]", "result": "≥ 80", "unit": "%"}, {"measurement": "percent effect (mortality or growth inhibition) at 200 ppm", "setting": "[4]", "result": "≥ 80", "unit": "%"}]}, {"smiles": "CCS(=O)(=O)c1cc2nc(C)n(C)c2cc1-c1nc2cc(C(F)(F)F)ncc2n1C", "note": "(single isomer, unassigned) [Compound A14, 2-(6-ethylsulfonyl-2,3-dimethyl-benzimidazol-5-yl)-3-methyl-6-(trifluoromethyl)imidazo[4,5-c]pyridine]", "values": [{"measurement": "mortality at 200 ppm", "setting": "[3]", "result": "≥ 80", "unit": "%"}, {"measurement": "percent effect (mortality or growth inhibition) at 200 ppm", "setting": "[4]", "result": "≥ 80", "unit": "%"}]}, {"smiles": "CCSc1cc2ccccc2cc1-c1nc2cc(C(F)(F)F)cnc2n1C", "note": "[Compound A1, 2-(3-ethylsulfanyl-2-naphthyl)-3-methyl-6-(trifluoromethyl)imidazo[4,5-b]pyridine]", "values": [{"measurement": "percent effect (mortality or growth inhibition) at 200 ppm", "setting": "[2]", "result": "≥ 80", "unit": "%"}, {"measurement": "percent effect (mortality or growth inhibition) at 200 ppm", "setting": "[4]", "result": "≥ 80", "unit": "%"}]}, {"smiles": "CC[S+]([O-])c1cc2ccccc2cc1-c1nc2cc(C(F)(F)F)cnc2n1C", "note": "(centres unmarked) [Compound A2, 2-(3-ethylsulfinyl-2-naphthyl)-3-methyl-6-(trifluoromethyl)imidazo[4,5-b]pyridine]", "values": [{"measurement": "percent effect (mortality or growth inhibition) at 200 ppm", "setting": "[2]", "result": "≥ 80", "unit": "%"}, {"measurement": "percent effect (mortality or growth inhibition) at 200 ppm", "setting": "[4]", "result": "≥ 80", "unit": "%"}]}, {"smiles": "CCS(=O)(=O)c1cc2nc(-c3ccccc3)[nH]c2cc1-c1nc2cc(C(F)(F)F)ncc2n1C", "note": "[Compound A16, 2-(6-ethylsulfonyl-2-phenyl-3H-benzimidazol-5-yl)-3-methyl-6-(trifluoromethyl)imidazo[4,5-c]pyridine]", "values": [{"measurement": "percent effect (mortality or growth inhibition) at 200 ppm", "setting": "[5]", "result": "≥ 80", "unit": "%"}]}, {"smiles": "CCS(=O)(=O)c1cc2nn[nH]c2cc1-c1nc2cc(C(F)(F)F)ncc2n1C", "note": "[Compound A17, 2-(6-ethylsulfonyl-3H-benzotriazol-5-yl)-3-methyl-6-(trifluoromethyl)imidazo[4,5-c]pyridine]", "values": [{"measurement": "percent effect (mortality or growth inhibition) at 200 ppm", "setting": "[4]", "result": "≥ 80", "unit": "%"}]}, {"smiles": "CCS(=O)(=O)c1cc2nccnc2cc1-c1nc2cc(C(F)(F)F)ncc2n1C", "note": "[Compound A20, 6-ethylsulfonyl-7-[3-methyl-6-(trifluoromethyl)imidazo[4,5-c]pyridin-2-yl]quinoxaline]", "values": [{"measurement": "mortality at 24 ppm", "setting": "[1]", "result": "≥ 80", "unit": "%"}, {"measurement": "percent effect (mortality or growth inhibition) at 200 ppm", "setting": "[2]", "result": "≥ 80", "unit": "%"}]}, {"smiles": "CCSc1cc2cnccc2cc1-c1nc2cc(C(F)(F)F)ncc2n1C", "note": "[Compound A25, 7-ethylsulfanyl-6-[3-methyl-6-(trifluoromethyl)imidazo[4,5-c]pyridin-2-yl]isoquinoline]", "values": [{"measurement": "percent effect (mortality or growth inhibition) at 200 ppm", "setting": "[2]", "result": "≥ 80", "unit": "%"}, {"measurement": "percent effect (mortality or growth inhibition) at 200 ppm", "setting": "[4]", "result": "≥ 80", "unit": "%"}]}, {"smiles": "CCS(=O)(=O)c1cc2cnccc2cc1-c1nc2cc(C(F)(F)F)ncc2n1C", "note": "[Compound A26, 7-ethylsulfonyl-6-[3-methyl-6-(trifluoromethyl)imidazo[4,5-c]pyridin-2-yl]isoquinoline]", "values": [{"measurement": "percent effect (mortality or growth inhibition) at 200 ppm", "setting": "[4]", "result": "≥ 80", "unit": "%"}]}, {"smiles": "CCS(=O)(=O)c1cc2ncsc2cc1-c1nc2cc(C(F)(F)F)ncc2n1C", "note": "[Compound A30, 5-ethylsulfonyl-6-[3-methyl-6-(trifluoromethyl)imidazo[4,5-c]pyridin-2-yl]-1,3-benzothiazole]", "values": [{"measurement": "percent effect (mortality or growth inhibition) at 200 ppm", "setting": "[2]", "result": "≥ 80", "unit": "%"}, {"measurement": "percent effect (mortality or growth inhibition) at 200 ppm", "setting": "[5]", "result": "≥ 80", "unit": "%"}, {"measurement": "percent effect (mortality or growth inhibition) at 200 ppm", "setting": "[4]", "result": "≥ 80", "unit": "%"}]}, {"smiles": "CCS(=O)(=O)c1cc2[nH]c(C(F)(F)F)nc2nc1-c1nc2cc(C(F)(F)F)ncc2n1C", "note": "[Compound A34, 6-ethylsulfonyl-5-[3-methyl-6-(trifluoromethyl)imidazo[4,5-c]pyridin-2-yl]-2-(trifluoromethyl)-1H-imidazo[4,5-b]pyridine]", "values": [{"measurement": "mortality at 24 ppm", "setting": "[1]", "result": "≥ 80", "unit": "%"}, {"measurement": "percent effect (mortality or growth inhibition) at 200 ppm", "setting": "[2]", "result": "≥ 80", "unit": "%"}, {"measurement": "percent effect (mortality or growth inhibition) at 200 ppm", "setting": "[4]", "result": "≥ 80", "unit": "%"}]}, {"smiles": "CCS(=O)(=O)c1cc2nnn(C)c2cc1-c1nc2cc(C(F)(F)F)ncc2n1C", "note": "[Compound A35, 5-ethylsulfonyl-1-methyl-6-[3-methyl-6-(trifluoromethyl)imidazo[4,5-c]pyridin-2-yl]benzotriazole]", "values": [{"measurement": "mortality at 24 ppm", "setting": "[1]", "result": "≥ 80", "unit": "%"}, {"measurement": "percent effect (mortality or growth inhibition) at 200 ppm", "setting": "[2]", "result": "≥ 80", "unit": "%"}, {"measurement": "mortality at 200 ppm", "setting": "[3]", "result": "≥ 80", "unit": "%"}]}]}
